In ChEMBL document CHEMBL5370540, “Discovery of pyrimidine-5-carboxamide derivatives as novel salt-inducible kinases (SIKs) inhibitors for inflammatory bowel disease (IBD) treatment” (Eur J Med Chem, 2023):
Activity calls are given as the source filed them. No cut-off for these calls is given here.

How the values were obtained:
Mus musculus [1] = test: Antiinflammatory activity in DSS-induced colitis C57BL/6J mouse model assessed as increase in body weight at 50 to 100 mg/kg, po; format: functional, organism-based; details: dose 50-100 mg/kg
BMDM [2] = test: Anti-inflammatory activity against C57BL/6J mouse BMDM cells assessed as increase in IL-10 level at 500 nM preincubated for 1 hr followed by LPS stimulation measured after 2 to 8 hrs by ELISA method; format: functional, cell-based; details: time 3-9 hrs
[3] = target: Protein-tyrosine kinase 6 (Homo sapiens) (UniProt Q13882); test: Inhibition of BRK (unknown origin) at 1 uM
[4] = target: Tyrosine-protein kinase Lck (Homo sapiens) (UniProt P06239); test: Inhibition of LcK (unknown origin) at 1 uM
Sequence of Tyrosine-protein kinase Lck (Homo sapiens) (P06239 2-509 limits assumed): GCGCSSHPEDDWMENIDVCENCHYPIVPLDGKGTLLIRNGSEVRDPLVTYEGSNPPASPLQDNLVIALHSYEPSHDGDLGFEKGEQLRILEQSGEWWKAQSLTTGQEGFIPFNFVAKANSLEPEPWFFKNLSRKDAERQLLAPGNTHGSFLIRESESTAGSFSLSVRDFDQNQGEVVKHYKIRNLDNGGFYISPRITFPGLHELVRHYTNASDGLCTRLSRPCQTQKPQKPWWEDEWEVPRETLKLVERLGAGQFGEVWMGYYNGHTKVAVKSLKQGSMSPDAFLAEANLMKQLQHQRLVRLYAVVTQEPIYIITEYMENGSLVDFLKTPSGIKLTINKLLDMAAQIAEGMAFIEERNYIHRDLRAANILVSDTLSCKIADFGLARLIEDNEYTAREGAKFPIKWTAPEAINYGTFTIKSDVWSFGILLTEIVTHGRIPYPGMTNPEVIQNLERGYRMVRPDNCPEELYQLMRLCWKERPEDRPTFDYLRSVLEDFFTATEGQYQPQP

[5] = target: Serine/threonine-protein kinase SIK2 (Mus musculus) (UniProt Q8CFH6); test: Inhibition of SIK2 in C57BL/6J mouse BMDM cells assessed as increase in c-FOS mRNA level at 500 nM preincubated for 1 hr followed by LPS stimulation measured for 2 to 4 hrs by qPCR analysis; format: cell-based; details: time 3-5 hrs
Sequence of Serine/threonine-protein kinase SIK2 (Mus musculus) (Q8CFH6 whole entry): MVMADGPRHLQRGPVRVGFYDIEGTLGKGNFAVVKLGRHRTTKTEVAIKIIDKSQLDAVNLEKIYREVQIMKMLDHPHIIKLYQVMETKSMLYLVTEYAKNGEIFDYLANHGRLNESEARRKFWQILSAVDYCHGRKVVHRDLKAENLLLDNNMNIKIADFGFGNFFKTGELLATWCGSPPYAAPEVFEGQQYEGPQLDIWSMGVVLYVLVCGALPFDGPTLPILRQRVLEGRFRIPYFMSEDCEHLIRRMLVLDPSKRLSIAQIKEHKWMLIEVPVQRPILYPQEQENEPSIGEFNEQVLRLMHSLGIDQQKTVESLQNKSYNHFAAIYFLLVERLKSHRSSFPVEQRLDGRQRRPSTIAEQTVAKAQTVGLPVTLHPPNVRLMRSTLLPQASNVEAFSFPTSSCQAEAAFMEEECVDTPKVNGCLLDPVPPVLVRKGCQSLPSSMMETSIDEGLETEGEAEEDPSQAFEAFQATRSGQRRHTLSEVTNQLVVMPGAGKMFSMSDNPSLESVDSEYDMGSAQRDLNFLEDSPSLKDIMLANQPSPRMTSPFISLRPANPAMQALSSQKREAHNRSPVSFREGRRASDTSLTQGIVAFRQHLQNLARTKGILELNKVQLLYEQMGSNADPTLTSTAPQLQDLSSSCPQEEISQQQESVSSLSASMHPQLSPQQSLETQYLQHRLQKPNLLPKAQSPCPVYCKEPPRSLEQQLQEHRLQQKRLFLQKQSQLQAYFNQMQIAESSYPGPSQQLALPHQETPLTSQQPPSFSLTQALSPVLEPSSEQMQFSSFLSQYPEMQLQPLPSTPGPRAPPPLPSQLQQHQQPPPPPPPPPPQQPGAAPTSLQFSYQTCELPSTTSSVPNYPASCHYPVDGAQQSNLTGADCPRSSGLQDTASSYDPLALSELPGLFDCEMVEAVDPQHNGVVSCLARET

[6] = Cmax in Sprague-Dawley rat at 10 mg/kg, po measured upto 24 hrs by LC/MS/MS analysis; format: ADME, organism-based; parameters: dose 10 mg/kg, time < 24 hrs, route po; details: in vivo
[7] = target: Tyrosine-protein kinase TXK (Homo sapiens) (UniProt P42681); test: Inhibition of Txk (unknown origin) at 1 uM
Sequence of Tyrosine-protein kinase TXK (Homo sapiens) (P42681 whole entry): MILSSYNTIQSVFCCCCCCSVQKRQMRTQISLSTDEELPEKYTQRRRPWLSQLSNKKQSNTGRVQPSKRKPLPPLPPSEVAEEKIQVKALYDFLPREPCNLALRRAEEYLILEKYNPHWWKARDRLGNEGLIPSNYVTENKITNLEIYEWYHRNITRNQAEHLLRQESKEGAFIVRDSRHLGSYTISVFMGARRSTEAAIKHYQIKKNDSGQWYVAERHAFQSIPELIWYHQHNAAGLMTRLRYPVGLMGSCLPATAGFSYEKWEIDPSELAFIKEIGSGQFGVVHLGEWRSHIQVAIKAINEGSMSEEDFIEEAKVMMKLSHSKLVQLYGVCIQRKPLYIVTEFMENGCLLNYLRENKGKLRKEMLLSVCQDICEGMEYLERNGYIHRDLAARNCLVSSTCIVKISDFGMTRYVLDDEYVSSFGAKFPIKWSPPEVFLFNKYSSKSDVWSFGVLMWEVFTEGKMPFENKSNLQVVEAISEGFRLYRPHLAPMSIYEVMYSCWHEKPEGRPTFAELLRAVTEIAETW

Mus musculus [8] = test: Antiinflammatory activity in DSS-induced colitis C57BL/6J mouse model assessed as decrease in thickening of inherent base layer at 7.5 to 15 mg/kg, ip measured after 12 days by H&E staining based analysis; format: functional, organism-based; details: dose 7.5-15 mg/kg, time 12.0 day
[9] = target: Serine/threonine-protein kinase SIK2 (Homo sapiens, UniProt Q9H0K1); test: Inhibition of SIK2 (unknown origin)
[10] = target: Activated CDC42 kinase 1 (Homo sapiens) (UniProt Q07912); test: Inhibition of ACK1 (unknown origin) at 1 uM
Sequence of Activated CDC42 kinase 1 (Homo sapiens) (Q07912 whole entry, looked up): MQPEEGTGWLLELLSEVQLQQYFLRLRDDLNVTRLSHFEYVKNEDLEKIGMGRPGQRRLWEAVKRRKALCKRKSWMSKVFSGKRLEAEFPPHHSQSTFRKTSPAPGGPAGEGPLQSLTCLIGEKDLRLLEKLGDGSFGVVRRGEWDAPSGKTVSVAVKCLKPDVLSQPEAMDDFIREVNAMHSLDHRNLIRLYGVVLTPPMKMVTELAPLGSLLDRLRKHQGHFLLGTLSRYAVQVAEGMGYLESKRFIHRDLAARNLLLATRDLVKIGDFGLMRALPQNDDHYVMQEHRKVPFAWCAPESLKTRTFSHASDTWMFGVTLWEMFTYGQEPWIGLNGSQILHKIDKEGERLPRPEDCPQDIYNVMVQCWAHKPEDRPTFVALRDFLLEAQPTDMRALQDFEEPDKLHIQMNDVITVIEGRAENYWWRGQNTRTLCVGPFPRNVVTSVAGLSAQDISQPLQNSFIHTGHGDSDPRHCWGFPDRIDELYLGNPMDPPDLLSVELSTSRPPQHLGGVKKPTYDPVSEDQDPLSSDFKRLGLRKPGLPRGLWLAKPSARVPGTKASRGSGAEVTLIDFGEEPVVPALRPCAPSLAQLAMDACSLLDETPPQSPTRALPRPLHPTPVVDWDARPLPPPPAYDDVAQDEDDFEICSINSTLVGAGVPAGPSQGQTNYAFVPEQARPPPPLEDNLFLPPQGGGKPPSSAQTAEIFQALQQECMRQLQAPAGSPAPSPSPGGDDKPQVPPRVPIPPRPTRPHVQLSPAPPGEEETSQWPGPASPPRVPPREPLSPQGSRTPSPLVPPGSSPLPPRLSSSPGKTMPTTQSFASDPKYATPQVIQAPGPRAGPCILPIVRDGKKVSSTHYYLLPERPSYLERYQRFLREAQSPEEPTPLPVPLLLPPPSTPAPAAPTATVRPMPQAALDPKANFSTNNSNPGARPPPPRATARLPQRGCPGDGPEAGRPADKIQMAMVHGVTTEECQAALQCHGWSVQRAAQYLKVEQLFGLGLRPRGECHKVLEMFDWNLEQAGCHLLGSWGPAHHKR

[11] = Selectivity ratio of IC50 for SIK3 (unknown origin) to IC50 for SIK2 (unknown origin)
[12] = target: Serine/threonine-protein kinase SIK2 (Mus musculus) (UniProt Q8CFH6); test: Inhibition of SIK2 in C57BL/6J mouse BMDM cells assessed as increase in IL-12 mRNA level at 500 nM preincubated for 1 hr followed by LPS stimulation measured for 1 hr by qPCR analysis; format: cell-based; details: time 2.0 hrs
[13] = target: Tyrosine-protein kinase Lyn (Homo sapiens) (UniProt P07948); test: Inhibition of Lyn (unknown origin) at 1 uM
BMDM [14] = test: Upregulation of CREB-dependent gene transcription in C57BL/6J mouse BMDM cells assessed as CRTC3 translocation to nucleus at 500 nM preincubated for 1 hr followed by LPS stimulation measured after 1 hr by immunofluorescence analysis; format: functional, cell-based; details: time 2.0 hrs
Mus musculus [15] = test: Antiinflammatory activity in DSS-induced colitis C57BL/6J mouse model assessed as increase in colon length at 7.5 to 30 mg/kg, ip measured after 12 days; format: functional, organism-based; details: dose 7.5-30 mg/kg, time 12.0 day
[16] = target: Serine/threonine-protein kinase SIK2 (Mus musculus) (UniProt Q8CFH6); test: Inhibition of SIK2 in C57BL/6J mouse BMDM cells assessed as increase in SPHK1 mRNA level at 500 nM preincubated for 1 hr followed by LPS stimulation measured upto 8 hrs by qPCR analysis; format: cell-based; details: time <= 9.0 hrs
[17] = target: Tyrosine-protein kinase ABL2 (Homo sapiens) (UniProt P42684); test: Inhibition of ARG (unknown origin) at 1 uM
Sequence of Tyrosine-protein kinase ABL2 (Homo sapiens) (P42684 whole entry): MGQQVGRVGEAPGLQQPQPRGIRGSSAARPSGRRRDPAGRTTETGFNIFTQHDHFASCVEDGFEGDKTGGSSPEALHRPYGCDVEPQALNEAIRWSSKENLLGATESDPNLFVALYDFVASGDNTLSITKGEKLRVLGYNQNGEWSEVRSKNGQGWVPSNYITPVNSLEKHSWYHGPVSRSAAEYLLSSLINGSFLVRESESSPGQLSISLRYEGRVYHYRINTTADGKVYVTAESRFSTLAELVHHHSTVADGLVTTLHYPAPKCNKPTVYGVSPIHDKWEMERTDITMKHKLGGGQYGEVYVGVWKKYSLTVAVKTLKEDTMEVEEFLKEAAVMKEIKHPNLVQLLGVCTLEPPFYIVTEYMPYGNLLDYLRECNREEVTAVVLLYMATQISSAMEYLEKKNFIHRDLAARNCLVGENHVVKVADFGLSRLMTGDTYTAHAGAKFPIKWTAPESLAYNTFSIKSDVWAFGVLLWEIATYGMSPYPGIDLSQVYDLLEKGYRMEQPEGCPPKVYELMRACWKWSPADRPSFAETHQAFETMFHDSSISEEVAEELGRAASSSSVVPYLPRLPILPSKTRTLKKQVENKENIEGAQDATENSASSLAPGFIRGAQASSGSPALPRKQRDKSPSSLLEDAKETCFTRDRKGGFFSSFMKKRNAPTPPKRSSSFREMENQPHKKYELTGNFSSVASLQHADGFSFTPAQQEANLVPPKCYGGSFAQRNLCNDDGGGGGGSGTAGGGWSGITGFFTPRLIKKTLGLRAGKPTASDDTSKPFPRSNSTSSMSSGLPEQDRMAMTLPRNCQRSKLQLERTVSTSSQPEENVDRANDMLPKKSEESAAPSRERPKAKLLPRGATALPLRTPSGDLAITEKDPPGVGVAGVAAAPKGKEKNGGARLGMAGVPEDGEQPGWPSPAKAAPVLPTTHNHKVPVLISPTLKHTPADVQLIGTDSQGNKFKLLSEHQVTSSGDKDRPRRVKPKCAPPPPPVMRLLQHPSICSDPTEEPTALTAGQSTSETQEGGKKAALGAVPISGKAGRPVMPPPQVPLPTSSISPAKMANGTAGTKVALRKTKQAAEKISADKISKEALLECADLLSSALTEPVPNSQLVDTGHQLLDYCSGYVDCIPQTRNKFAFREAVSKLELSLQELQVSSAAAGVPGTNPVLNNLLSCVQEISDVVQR

Mus musculus [18] = test: Antiinflammatory activity in DSS-induced colitis C57BL/6J mouse model assessed as decrease in disease activity index at 7.5 to 30 mg/kg, ip; format: functional, organism-based; details: dose 7.5-30 mg/kg
[19] = target: Tyrosine-protein kinase BTK (Homo sapiens) (UniProt Q06187); test: Inhibition of BTK (unknown origin) at 1 uM
[20] = target: Tyrosine-protein kinase Yes (Homo sapiens) (UniProt P07947); test: Inhibition of Yes (unknown origin) at 1 uM
Sequence of Tyrosine-protein kinase Yes (Homo sapiens) (P07947 2-543 limits assumed): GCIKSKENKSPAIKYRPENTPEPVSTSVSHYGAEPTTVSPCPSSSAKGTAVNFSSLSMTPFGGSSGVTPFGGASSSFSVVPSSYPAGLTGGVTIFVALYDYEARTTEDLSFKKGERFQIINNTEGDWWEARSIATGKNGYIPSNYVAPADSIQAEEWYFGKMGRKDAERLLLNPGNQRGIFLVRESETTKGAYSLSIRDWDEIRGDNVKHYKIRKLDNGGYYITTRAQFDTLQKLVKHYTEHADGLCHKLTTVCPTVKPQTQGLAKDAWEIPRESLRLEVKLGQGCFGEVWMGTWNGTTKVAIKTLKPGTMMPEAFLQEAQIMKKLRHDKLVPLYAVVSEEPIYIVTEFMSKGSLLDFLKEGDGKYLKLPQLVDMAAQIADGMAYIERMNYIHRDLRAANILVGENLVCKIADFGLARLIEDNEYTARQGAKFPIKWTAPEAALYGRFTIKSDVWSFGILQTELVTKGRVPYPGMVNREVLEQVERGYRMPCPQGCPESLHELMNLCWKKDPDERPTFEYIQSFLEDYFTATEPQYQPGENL

[21] = target: Serine/threonine-protein kinase SIK2 (Mus musculus) (UniProt Q8CFH6); test: Inhibition of SIK2 in C57BL/6J mouse BMDM cells assessed as increase in IL-10 mRNA level at 500 nM preincubated for 1 hr followed by LPS stimulation measured for 2 to 4 hrs by qPCR analysis; format: cell-based; details: time 3-5 hrs
Mus musculus [22] = test: Antiinflammatory activity in DSS-induced colitis C57BL/6J mouse model assessed as decrease in disease activity index at 50 to 100 mg/kg, po; format: functional, organism-based; details: dose 50-100 mg/kg
[23] = target: Tyrosine-protein kinase Fyn (Homo sapiens) (UniProt P06241); test: Inhibition of Fyn (unknown origin) at 1 uM
Mus musculus [24] = test: Antiinflammatory activity in DSS-induced colitis C57BL/6J mouse model assessed as decrease in thickening of inherent base layer at 50 to 100 mg/kg, po measured after 12 days by H&E staining based analysis; format: functional, organism-based; details: dose 50-100 mg/kg, time 12.0 day
BMDM [25] = test: Anti-inflammatory activity against C57BL/6J mouse BMDM cells assessed as decrease in IL-12 level at 500 nM preincubated for 1 hr followed by LPS stimulation measured after 8 hrs by ELISA method; format: functional, cell-based; details: time 9.0 hrs
[26] = target: Tyrosine-protein kinase HCK (Homo sapiens) (UniProt P08631); test: Inhibition of HcK (unknown origin) at 1 uM
[27] = target: Tyrosine-protein kinase Fgr (Homo sapiens) (UniProt P09769); test: Inhibition of Fgr (unknown origin) at 1 uM
BMDM [28] = test: Anti-inflammatory activity against C57BL/6J mouse BMDM cells assessed as decrease in IL-12 level at 500 nM preincubated for 1 hr followed by LPS stimulation measured after 4 to 8 hrs by ELISA method; format: functional, cell-based; details: time 5-9 hrs
BMDM [29] = test: Effect on TLR-stimulated CREB phosphorylation at Ser133 residue in C57BL/6J mouse BMDM cells at 500 nM preincubated for 1 hr followed by LPS stimulation measured upto 60 mins by Western blot analysis; format: functional, cell-based; details: time 2.0 hrs
[30] = target: Serine/threonine-protein kinase SIK3 (Homo sapiens, UniProt Q9Y2K2); test: Inhibition of SIK3 (unknown origin)
[31] = target: Serine/threonine-protein kinase SIK2 (Mus musculus) (UniProt Q8CFH6); test: Inhibition of SIK2 in C57BL/6J mouse BMDM cells assessed as increase in c-FOS mRNA level at 500 nM preincubated for 1 hr followed by LPS stimulation measured for 1 hr by qPCR analysis; format: cell-based; details: time 2.0 hrs
BMDM [32] = test: Cytotoxicity against C57BL/6J mouse BMDM cells assessed as cell viability upto 500 nM preincubated for 1 hr followed by LPS stimulation measured after 2 to 4 hrs by CCK8 assay; format: toxicity, cell-based; details: 0.5 µM, time 3-5 hrs
[33] = target: Proto-oncogene tyrosine-protein kinase Src (Homo sapiens) (UniProt P12931); test: Inhibition of cSRC (unknown origin) at 1 uM
BMDM [34] = test: Anti-inflammatory activity against C57BL/6J mouse BMDM cells assessed as decrease in IL-12 level upto 500 nM preincubated for 1 hr followed by LPS stimulation measured after 8 hrs by ELISA method; format: functional, cell-based; details: time 9.0 hrs

## Cc1cccc(F)c1NC(=O)c1cnc(Nc2ccc(N3CCN(C)CC3)c(F)c2)nc1NC1CCC1
Mus musculus [1]
  Activity: Active
BMDM [2]
  Activity: Active
[3]
  inhibition: Active
[4]
  inhibition: Active
[5]
  inhibition: inactive
[6]
  Cmax: 572 ng/mL
[7]
  inhibition: Active
Mus musculus [8]
  Activity: Active
[9]
  IC50: 8 nM
[10]
  inhibition: Active
[11]
  Ratio IC50: 18.3
[12]
  inhibition: Active
[13]
  inhibition: Active
BMDM [14]
  Activity: Active
Mus musculus [15]
  Activity: Active
[16]
  inhibition: Active
[17]
  inhibition: Active
Mus musculus [18]
  Activity: Active
[19]
  inhibition: Active
[20]
  inhibition: Active
[21]
  inhibition: inactive
Mus musculus [22]
  Activity: Active
[23]
  inhibition: Active
Mus musculus [24]
  Activity: Active
BMDM [25]
  Activity: Active
[26]
  inhibition: Active
[27]
  inhibition: Active
BMDM [28]
  Activity: inactive
BMDM [29]
  Activity: inactive
[30]
  IC50: 146 nM
[31]
  inhibition: Active
BMDM [32]
  Activity: Non-Toxic
[33]
  inhibition: Active
BMDM [34]
  Activity: Active
